Common to all, as to type: cell-based, human
Assay [1] concerns HT-29 (colorectal carcinoma, B-RafV600E) cells. In words: Cell proliferation (Alamar Blue) assay, HT-29. The gist of the method: (§1)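 After overnight plating (16-24 h), cells were treated for 72 h with compound dilutions spanning roughly 0.0005 to 10 uM. Proliferation was measured by Alamar Blue fluorescence and IC50 values derived from variable-slope dose-response curves.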
A general note: Alamar Blue is a resazurin reagent that responds to reducing activity.

For assay [2], the system named is HCT116 (colorectal carcinoma, K Ras G13D) cells. Put plainly: Cell proliferation (Alamar Blue) assay, HCT116. A digest of the protocol:
as §1

Assay [3] relates to phosphorylation of RSK1(S380) (the downstream target of ERK1/2). Put plainly: Phospho-RSK1(S380) ELISA assay in HT-29 cells. The note with it: phospho-RSK1(S380), read-out: Mechanistic Cell Assay RSK1 Phos HT29 IC50. The gist of the method: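 IC50 values derive from a variable-slope sigmoidal fit of sandwich-ELISA signal (450 nm) for RSK1 Ser380 phosphorylation. The cells were B-RafV600E HT-29 colorectal line, exposed to serially diluted compound for 2 h after overnight seeding, then lysed at 4° C.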
(In general: An ELISA detects its analyte on a solid surface through an enzyme-linked reagent.)

The mark [4] stands for this setting: Homo sapiens, HT-29, HT29 cells.
[5] abbreviates: Homo sapiens, HCT-116, HCT116 cells.

Where two headings read alike, the source gives them in different places. Where only a bound is given, the exact number is not on record here.

Take `COc1c(F)cccc1Nc1ncc(C)c(-n2ccc(C(=O)NC(CO)c3cccc(Cl)c3)c2)n1` (stereo not drawn) [Example 143, N-(1-(3-chloro-phenyl)-2-hydroxy-ethyl)-1-(2-((3-fluoro-2-methoxy-phenyl)amino)-5-methyl-pyrimidin-4-yl)-1H-pyrrole-3-carboxamide]: the values for the IC50 in assay [1] (setting [4]), in assay [2] (setting [5]) and in assay [3] (setting [4]) were 500 to 2500 nM, 250 to 500 nM and 250 to 500 nM, respectively.
For `CC[C@@H](CO)Nc1ncc(C)c(-n2ccc(C(=O)NC(CO)c3cccc(Cl)c3)c2)n1` (stereo partly drawn) [Example 146, N-(1-(3-chloro-phenyl)-2-hydroxy-ethyl)-1-(2-(((S)-1-hydroxy-butan-2-yl)amino)-5-methyl-pyrimidin-4-yl)-1H-pyrrole-3-carboxamide], the results for the IC50 in assay [1] (setting [4]), in assay [2] (setting [5]) and in assay [3] (setting [4]) were 500 to 2500 nM, 500 to 2500 nM and 100 to 250 nM, respectively.
As for `Cc1cnc(NC(CO)CO)nc1-n1ccc(C(=O)NC(CO)c2ccccc2)c1` (stereo not drawn) [Example 147, 1-(2-((1,3-dihydroxy-propan-2-yl)amino)-5-methyl-pyrimidin-4-yl)-N-(2-hydroxy-1-phenylethyl)-1H-pyrrole-3-carboxamide], the IC50 in assay [1] (setting [4]), in assay [2] (setting [5]) and in assay [3] (setting [4]) was above 2500 nM in each case.
For `COc1ccc(Nc2ncc(C)c(-n3ccc(C(=O)NC(CO)c4ccccc4)c3)n2)cc1OCCN1CCN(C)CC1` (stereo not drawn) [Example 148, N-(2-hydroxy-1-phenylethyl)-1-(2-((4-methoxy-3-(2-(4-methyl-piperazin-1-yl)ethoxy)-phenyl)amino)-5-methyl-pyrimidin-4-yl)-1H-pyrrole-3-carboxamide], the IC50 in assay [1] (setting [4]), in assay [2] (setting [5]) and in assay [3] (setting [4]) was 500 to 2500 nM in each case.
As for `Cc1cnc(Nc2ccc(F)cc2Cl)nc1-n1ccc(C(=O)NC(COC(=O)C(N)CC(C)C)c2ccccc2)c1` (stereo not drawn) [Example 150, 2-(1-(2-((2-chloro-4-fluorophenyl)-amino)-5-methyl-pyrimidin-4-yl)-1H-pyrrole-3-carboxamido)-2-phenylethyl 2-amino-4-methyl-pentanoate], the IC50 in assay [1] (setting [4]) was above 2500 nM; in assay [2] (setting [5]) it was above 2500 nM; in assay [3] (setting [4]), 500 to 2500 nM.
Regarding `Cc1cnc(NC2CCOC2)nc1-n1ccc(C(=O)N[C@H](CO)c2cccc(Cl)c2)c1` (stereo partly drawn) [Example 151, N-((S)-1-(3-chlorophenyl)-2-hydroxy-ethyl)-1-(5-methyl-2-((tetrahydro-furan-3-yl)amino)pyrimidin-4-yl)-1H-pyrrole-3-carboxamide], the results for the IC50 in assay [1] (setting [4]), in assay [2] (setting [5]) and in assay [3] (setting [4]) were at most 100 nM, 500 to 2500 nM and 100 to 250 nM, respectively.
As to `Cc1cnc(NC2CCCOC2)nc1-n1ccc(C(=O)N[C@H](CO)c2cccc(Cl)c2)c1` (stereo partly drawn) [Example 152, N-((S)-1-(3-chlorophenyl)-2-hydroxy-ethyl)-1-(5-methyl-2-((tetrahydro-2H-pyran-3-yl)amino)pyrimidin-4-yl)-1H-pyrrole-3-carboxamide], the figures for the IC50 in assay [1] (HT29 cells), in assay [2] (setting [5]) and in assay [3] (HT29 cells) were 100 to 250 nM, 500 to 2500 nM and 100 to 250 nM, respectively.
Take `COc1cc(Nc2ncc(C)c(-n3ccc(C(=O)NC(CO)c4ccccc4)c3)n2)ccc1F` (stereo not drawn) [Example 154, 1-(2-((4-fluoro-3-methoxy-phenyl)amino)-5-methyl-pyrimidin-4-yl)-N-(2-hydroxy-1-phenylethyl)-1H-pyrrole-3-carboxamide]: the IC50 was in the range of 500 to 2500 nM in assay [1] (setting [4]), 100 to 250 nM in assay [2] (setting [5]) and 250 to 500 nM in assay [3] (setting [4]).
In the same order, the values of `Cc1cnc(Nc2ccc(F)cc2)nc1-n1cnc(C(=O)NC(CO)c2cccc(Cl)c2)c1` (stereo not drawn) [Example 155, N-(1-(3-chlorophenyl)-2-hydroxy-ethyl)-1-(2-((4-fluoro-phenyl)amino)-5-methyl-pyrimidin-4-yl)-1H-imidazole-4-carboxamide] are 250 to 500 nM, 500 to 2500 nM and 100 to 250 nM.
On to `Cc1cnc(NC2CCCOC2)nc1-n1ccc(C(=O)N[C@H](CO)c2cccc(Cl)c2)c1` (stereo partly drawn) [Example 156, N-((S)-1-(3-chloro-phenyl)-2-hydroxy-ethyl)-1-(5-methyl-2-((tetrahydro-2H-pyran-3-yl)amino)-pyrimidin-4-yl)-1H-pyrrole-3-carboxamide], for which the IC50 is 250 to 500 nM in assay [1] (HT29 cells), 500 to 2500 nM in assay [2] (HCT116 cells) and 250 to 500 nM in assay [3] (HT29 cells).
Regarding `Cc1cnc(NC2CCOC2)nc1-n1ccc(C(=O)N[C@H](CO)c2ccc(F)c(Cl)c2)c1` (stereo partly drawn) [Example 157, N-((S)-1-(3-chloro-4-fluorophenyl)-2-hydroxy-ethyl)-1-(5-methyl-2-((tetrahydro-furan-3-yl)amino)pyrimidin-4-yl)-1H-pyrrole-3-carboxamide], the IC50 was 250 to 500 nM in assay [1] (setting [4]), 500 to 2500 nM in assay [2] (setting [5]) and 250 to 500 nM in assay [3] (setting [4]).
As for `CC(=O)NCC(NC(=O)c1ccn(-c2nc(Nc3ccc4c(c3)OC(F)(F)O4)ncc2C)c1)c1cccc(Cl)c1` (stereo not drawn) [Example 158, N-(2-acetamido-1-(3-chloro-phenyl)-ethyl)-1-(2-((2,2-difluoro-benzo[d][1,3]dioxol-5-yl)-amino)-5-methyl-pyrimidin-4-yl)-1H-pyrrole-3-carboxamide], the IC50 in assay [1] (setting [4]) was 500 to 2500 nM; in assay [2] (setting [5]), 500 to 2500 nM; in assay [3] (setting [4]), above 2500 nM.
As for `Cc1cnc(Nc2cccc3c2OC(F)(F)O3)nc1-n1ccc(C(=O)NC(CO)c2cccc(Cl)c2)c1` (stereo not drawn) [Example 160, N-(1-(3-chloro-phenyl)-2-hydroxy-ethyl)-1-(2-((2,2-difluoro-benzo[d][1,3]dioxol-4-yl)amino)-5-methyl-pyrimidin-4-yl)-1H-pyrrole-3-carboxamide], the values for the IC50 in assay [1] (setting [4]), in assay [2] (setting [5]) and in assay [3] (setting [4]) were above 2500 nM, above 2500 nM and 500 to 2500 nM, respectively.
As to `Cc1cnc(N[C@H]2CCOC2)nc1-n1ccc(C(=O)N[C@H](CO)c2cccc(Cl)c2)c1` [Example 161, N-((S)-1-(3-chlorophenyl)-2-hydroxy-ethyl)-1-(5-methyl-2-(((S)-tetra-hydrofuran-3-yl)amino)pyrimidin-4-yl)-1H-pyrrole-3-carboxamide], the IC50 in assay [1] (setting [4]) is at most 100 nM; in assay [2] (setting [5]), 250 to 500 nM; in assay [3] (setting [4]), at most 100 nM.
As for `Cc1cnc(N[C@@H]2CCOC2)nc1-n1ccc(C(=O)N[C@H](CO)c2cccc(Cl)c2)c1` [Example 162, N-((S)-1-(3-chlorophenyl)-2-hydroxy-ethyl)-1-(5-methyl-2-(((R)-tetra-hydrofuran-3-yl)amino)pyrimidin-4-yl)-1H-pyrrole-3-carboxamide], the IC50 in assay [1] (setting [4]) was 100 to 250 nM; in assay [2] (setting [5]), 500 to 2500 nM; in assay [3] (setting [4]), at most 100 nM.
In the same order, the values of `Cc1cnc(Nc2ccc(F)cc2)cc1-n1ccc(C(=O)NC(CN)c2ccc(F)c(Cl)c2)c1` (stereo not drawn) [Example 164, N-(2-amino-1-(3-chloro-4-fluoro-phenyl)ethyl)-1-(2-((4-fluorophenyl)-amino)-5-methyl-pyridin-4-yl)-1H-pyrrole-3-carboxamide] are 500 to 2500 nM, above 2500 nM and 500 to 2500 nM.
In the same order, the values of `Cc1cnc(NC2CCOC2)cc1-n1ccc(C(=O)NC(CO)c2cccc(Cl)c2)c1` (stereo not drawn) [Example 165, N-(1-(3-chloro-phenyl)-2-hydroxy-ethyl)-1-(5-methyl-2-((tetra-hydrofuran-3-yl)amino)pyridin-4-yl)-1H-pyrrole-3-carboxamide] are above 2500 nM, above 2500 nM and 500 to 2500 nM.
In the same order, the values of `Cc1cnc(Nc2ccc(F)cc2Cl)nc1-n1cnc(C(=O)NC(CO)c2cccc(Cl)c2)c1` (stereo not drawn) [Example 166, 1-(2-((2-chloro-4-fluorophenyl)amino)-5-methyl-pyrimidin-4-yl)-N-(1-(3-chlorophenyl)-2-hydroxy-ethyl)-1H-imidazole-4-carboxamide] are 500 to 2500 nM, above 2500 nM and 250 to 500 nM.
Regarding `CC[C@H](CO)Nc1ncc(C)c(-n2ccc(C(=O)NC(CO)c3cccc(Cl)c3)c2)n1` (stereo partly drawn) [Example 167, N-(1-(3-chloro-phenyl)-2-hydroxy-ethyl)-1-(2-(((R)-1-hydroxy-butan-2-yl)amino)-5-methyl-pyrimidin-4-yl)-1H-pyrrole-3-carboxamide], the IC50 was 500 to 2500 nM in assay [1] (setting [4]), above 2500 nM in assay [2] (setting [5]) and 500 to 2500 nM in assay [3] (setting [4]).
Take `CC[C@H](CO)Nc1cc(-n2cnc(C(=O)NC(CO)c3cccc(Cl)c3)c2)c(Cl)cn1` (stereo partly drawn) [Example 168, 1-(5-chloro-2-(((R)-1-hydroxybutan-2-yl)amino)pyridin-4-yl)-N-(1-(3-chlorophenyl)-2-hydroxyethyl)-1H-imidazole-4-carboxamide]: the IC50 in assay [1] (setting [4]) was above 2500 nM; in assay [2] (setting [5]), above 2500 nM; in assay [3] (setting [4]) it was 500 to 2500 nM.
Regarding `Cc1cnc(Nc2ccc(F)cc2Cl)nc1-n1ccc(C(=O)NC(CN)c2cccc(Cl)c2)c1` (stereo not drawn) [Example 169, N-(2-amino-1-(3-chlorophenyl)ethyl)-1-(2-((2-chloro-4-fluorophenyl)amino)-5-methylpyrimidin-4-yl)-1H-pyrrole-3-carboxamide], the IC50 was in the range of 250 to 500 nM in assay [1] (setting [4]), 500 to 2500 nM in assay [2] (setting [5]) and 500 to 2500 nM in assay [3] (setting [4]).
Regarding `O=C(N[C@H](CO)c1cccc(Cl)c1)c1cn(-c2ccnc(NC3CCOC3)c2)cn1` (stereo partly drawn) [Example 170, N-((S)-1-(3-chlorophenyl)-2-hydroxyethyl)-1-(2-((tetrahydrofuran-3-yl)amino)pyridin-4-yl)-1H-imidazole-4-carboxamide], the IC50 in assay [1] (setting [4]) was 500 to 2500 nM; in assay [2] (setting [5]), above 2500 nM; in assay [3] (setting [4]), above 2500 nM.

The IC50 is the concentration needed to halve the response being measured.

For the origin of these results see patent US11925629B2, “Heterocyclic inhibitors of ERK1 and ERK2 and their use in the treatment of cancer” (Asana Biosciences, LLC, priority 2015, dated 2024).
